In the supplement of paper PMC4862054:

How the values were obtained:
Conditions in all cases: incubation time: 72 h
[1] = system: MFM-223; test: drug sensitivity score (DSS), CellTox Green (DSS (AUC-based score)); higher = stronger drug effect (viability inhibition or cytotoxicity); extreme values may be limits of the assay
Method in brief: (§1)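 Compound was dispensed into 384-well plates at 5 concentrations in 10-fold steps spanning a 10,000-fold range chosen for each compound, and 20 µl of breast cancer cell suspension was added before 72 h of incubation. CellTox Green fluorescence was read at 485/520 nm, followed by CellTiter-Glo luminescence after 10 min at room temperature. Values on each plate were normalised to 0.1 % DMSO and a positive kill control. The drug sensitivity score came from the area under the fitted dose-response curve.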

[2] = system: MDA-MB-453; test: as above
Method in brief: as §1

[3] = system: MCF-10A; test: as above
Method in brief: as §1

[4] = system: CAL-51; test: as above
Method in brief: as §1

[5] = system: HCC1599; test: as above
Method in brief: as §1

[6] = system: BT-549; test: as above
Method in brief: as §1

[7] = system: DU-4475; test: as above
Method in brief: as §1

[8] = system: MDA-MB-468; test: as above
Method in brief: as §1

[9] = system: HDQ-P1; test: as above
Method in brief: as §1

[10] = system: CAL-120; test: as above
Method in brief: as §1

[11] = system: MFM-223; test: drug sensitivity score (DSS), CellTiter-Blue viability (DSS (AUC-based score)); higher = stronger viability inhibition; extreme values may be limits of the assay
Experimental: (§2)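 DSRT with the CellTiter-Blue (resazurin reduction) viability readout, fluorescence 560/590 nm, 72 h incubation. Plates were normalised to DMSO and benzethonium chloride controls. DSS is computed from the area under the fitted dose-response curve (5 or 9 concentrations).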

[12] = system: CAL-85-1; test: as above
Experimental: as §2

[13] = system: MDA-MB-453; test: as above
Experimental: as §2

[14] = system: HCC1937; test: as above
Experimental: as §2

[15] = system: CAL-51; test: as above
Experimental: as §2

[16] = system: HCC1599; test: as above
Experimental: as §2

[17] = system: Hs578T; test: as above
Experimental: as §2

[18] = system: BT-549; test: as above
Experimental: as §2

[19] = system: MDA-MB-468; test: as above
Experimental: as §2

[20] = system: HCC1143; test: as above
Experimental: as §2

[21] = system: MDA-MB-231; test: as above
Experimental: as §2

[22] = system: CAL-148; test: as above
Experimental: as §2

[23] = system: SK-BR-3; test: as above
Experimental: as §2

[24] = system: HDQ-P1; test: as above
Experimental: as §2

[25] = system: CAL-120; test: as above
Experimental: as §2

[26] = system: MDA-MB-436; test: drug sensitivity score (DSS), CellTox Green (DSS (AUC-based score)); higher = stronger drug effect (viability inhibition or cytotoxicity); extreme values may be limits of the assay
Method in brief: as §1

| Compound | drug sensitivity score [1] | drug sensitivity score [2] | drug sensitivity score [3] | drug sensitivity score [4] | drug sensitivity score [5] | drug sensitivity score [6] | drug sensitivity score [7] | drug sensitivity score [8] | drug sensitivity score [9] | drug sensitivity score [10] | drug sensitivity score [11] | drug sensitivity score [12] | drug sensitivity score [13] | drug sensitivity score [14] | drug sensitivity score [15] | drug sensitivity score [16] | drug sensitivity score [17] | drug sensitivity score [18] | drug sensitivity score [19] | drug sensitivity score [20] | drug sensitivity score [21] | drug sensitivity score [22] | drug sensitivity score [23] | drug sensitivity score [24] | drug sensitivity score [25] | drug sensitivity score [26] |
| --- | --- | --- | --- | --- | --- | --- | --- | --- | --- | --- | --- | --- | --- | --- | --- | --- | --- | --- | --- | --- | --- | --- | --- | --- | --- | --- |
| C[C@@H](Oc1cc(-c2cnn(C3CCNCC3)c2)cnc1N)c1c(Cl)ccc(F)c1Cl [Crizotinib] | 0 | 0 | 0 | 0 | 0 | 0 | 0 | 0 | 0.784 | 0 | 4.74 | 3.39 | 8.6 | 6.92 | 4.08 | 0 | 1.65 | 1.89 | 4.88 | 2.03 | 9.17 | 2.67 | 4.22 | 1.42 | 6.42 |  |
| C[C@]12CC[C@@H]3c4ccc(O)cc4C[C@@H](CCCCCCCCC[S+]([O-])CCCC(F)(F)C(F)(F)F)[C@H]3[C@@H]1CC[C@@H]2O (some centres not stated) [Fulvestrant] | 0 | 0 | 0 | 0 | 0 | 0 | 0 |  | 0 | 0 | 1.05 | 0 | 0 | 0 | 0 | 0 | 0 | 0 | 0 | 0 | 0 | 0 | 0 | 0 | 0 | 0 |
| Cc1ccc(C(=O)Nc2ccc(CN3CCN(C)CC3)c(C(F)(F)F)c2)cc1C#Cc1cnc2cccnn12 [Ponatinib] |  |  |  |  |  |  |  |  |  |  | 14.6 | 0 | 5.67 | 0 | 3.79 | 2.44 | 0.512 | 0.903 | 0 | 0 | 7.46 | 0.922 | 0 | 4.79 | 7.25 |  |
| Cc1ccc(C(=O)N(CCCN)[C@@H](c2oc3cc(Cl)ccc3c(=O)c2Cc2ccccc2)C(C)C)cc1 | 0 | 0 | 0 | 0 | 0 | 0 | 0 | 0 |  | 0 | 18.1 | 19.9 | 21.5 | 29.8 | 20.1 | 0 | 25.7 | 24.4 | 23.8 | 19.5 | 31.2 | 23.3 | 31.6 | 10.1 | 27.6 | 0 |
| N.N.[Cl][Pt][Cl] [Cisplatin] | 0 | 0 | 0 | 0 | 0 | 0 | 0 |  | 0 | 0 | 0 | 0 | 0 | 0 | 0 | 0 | 0 | 0 | 0 | 0 | 0 | 0 | 0 | 0 | 0 | 0 |
| CCN(CCCOc1ccc2c(Nc3cc(CC(=O)Nc4cccc(F)c4)[nH]n3)ncnc2c1)CCOP(=O)(O)O [Barasertib] |  |  |  |  |  |  |  |  |  |  | 0 | 4.42 | 11.8 | 9.75 | 8.86 | 0 | 7.48 | 5.75 | 12.1 | 0 | 3.7 | 20.5 | 0 | 0 | 8.21 |  |
| COc1cc2ncnc(Nc3ccc(F)c(Cl)c3)c2cc1NC(=O)/C=C/CN1CCCCC1 [Dacomitinib] | 0 | 0 | 0 | 0 | 0 | 0 | 0 | 0 | 0 | 0 |  |  |  |  |  |  |  |  |  |  |  |  |  |  |  | 2.58 |
| O=C(O)c1ccc(-c2c[nH]c3ncc(-c4ccccc4)cc23)cc1C1CCCC1 | 1.51 | 0 | 0 | 0 | 0 | 0 | 0 | 0 | 0 | 0 |  |  |  |  |  |  |  |  |  |  |  |  |  |  |  | 0 |
